Reference: paper PMC9949657 (PLOS ONE, 2023)

What was measured:
[1] = system: ovariectomized cynomolgus monkeys; set-up: method as in PMID 21497676; settings: cited from earlier work
[2] = system: patients with RA; set-up: method as in PMID 31036625; settings: compared with placebo, clinical trials for RA; cited from earlier work
[3] = system: mouse collagen-induced arthritis (CIA) model; assay: Micro-CT imaging in the CIA model (BMD); format: in vivo; settings: for BMD: Prednisolone 3 mg/kg oral once daily
Description: (§1) For the mouse CIA model, male DBA/1JNCrlj mice (7 weeks old) were injected with complete Freund’s adjuvant (CFA) (BD Biosciences) containing 2 mg/mL of bovine type II collagen at a site on the back (each 0.1 mL) and were boosted 21 days later in a similar manner. Arthritis scores were determined as previously reported.
The bone morphology of CIA mice was evaluated via micro-CT using Cosmo Scan (Rigaku, Tokyo, Japan). Hind paws of the mice were scanned using the following scanning conditions: 90 kV; 88 μA; field of view, 25 mm; 2 min. The BMD was calculated using the Analyze version 11.0 software (Biomedical Imaging Resource, Mayo Clinic, Rochester, MN). The bone was determined to have a BMD value ≥480 mg/cm^3, and the region of interest for calculating the BMD included the talus and cuboid. BMD was calibrated using a QRM-MicroCT-HA phantom (Quality Assurance in Radiology and Medicine, Moehrendorg, Germany) that was scanned on each day when micro-CT of animals was performed. Calibration was performed via scanning phantoms with densities of 0, 50, 200, 800, and 1200 mg HA/cm^3, and data analysis was performed using the Analyze11.0 Bone Mineral Density Analysis procedure.

[4] = system: mouse collagen-induced arthritis (CIA) model; assay: Mouse CIA model, arthritis score of hind paws (21-day treatment); format: in vivo; settings: Prednisolone 3 mg/kg oral once daily
Description: as §1

[5] = system: mouse collagen-induced arthritis (CIA) model; assay: Histopathological evaluation in the mouse CIA model; format: in vivo; settings: Prednisolone 3 mg/kg oral, 15 days
Description: as §1
On the day after the final administration, the four limbs of each mouse were harvested and decalcified in […]. The specimens were then embedded in paraffin blocks, cut into sections, stained with hematoxylin and eosin, and randomly selected for microscopic examination. Histopathological assessments were performed as described previously. This experiment was carried out in the laboratory of the BoZo Research Center Inc. (Ibaraki, Japan).

[6] = system: rat collagen-induced arthritis (CIA) model; assay: Rat CIA model, hind paw volume; format: in vivo; set-up: unit not given beside the values; settings: Prednisolone 1 mg/kg oral once daily
Description: For the rat CIA model, experimental arthritis was induced and volumes of both hind paws were measured as previously described.

[7] = system: mouse collagen-induced arthritis (CIA) model; assay: Mouse CIA model, arthritis score (15-day treatment); format: in vivo; settings: Prednisolone 3 mg/kg oral once daily
Description: as §1

denosumab: anti-human RANKL monoclonal antibody
BMD and bone strength [1]: improved
bone erosion progression [2]: inhibited

C[C@]12C=CC(=O)C=C1CC[C@@H]1[C@@H]2[C@@H](O)C[C@@]2(C)[C@H]1CC[C@]2(O)C(=O)CO [Prednisolone, prednisolone]
BMD ([3]; day 1): 957.82 mg/mL
BMD ([3]; day 8): 961.86 mg/mL
BMD ([3]; day 14): 984.25 mg/mL
BMD ([3]; day 22): 1000.83 mg/mL
decline in BMD, effect compared with vehicle ([3]; Prednisolone 3 mg/kg/day, 21 days): did not exhibit significant therapeutic effects
Arthritis score of hind paws ([4]; day 1): 7.33
Arthritis score of hind paws ([4]; day 8): 6.58
Arthritis score of hind paws ([4]; day 14): 5.75
Arthritis score of hind paws ([4]; day 22): 4.75
Histological score, Bone damage [5]: 3.50
Histological score, Cartilage damage [5]: 4.75
Histological score, Inflammation [5]: 5.25
Histological score, Pannus [5]: 4.13
Hind paws volume ([6]; day 0): 2.1
Hind paws volume ([6]; day 4): 2.12
Hind paws volume ([6]; day 7): 2.09
Hind paws volume ([6]; day 11): 2.16
Hind paws volume ([6]; day 14): 2.18
Hind paws volume ([6]; day 18): 2.25
Hind paws volume ([6]; day 21): 2.37
Arthritis score ([7]; day 1): 6.63
Arthritis score ([7]; day 4): 7.88
Arthritis score ([7]; day 8): 8.38
Arthritis score ([7]; day 11): 7.88
Arthritis score ([7]; day 15): 2.88
